PMC9144902, “Metal(II) Complexes of the Fluoroquinolone Fleroxacin: Synthesis, Characterization and Biological Profile” (Pharmaceutics, 2022)

Key:
[1] = target: T1, human serum albumin (HSA) (Homo sapiens, UniProt P02768); assay: Albumin binding by tryptophan fluorescence emission quenching; details: for K(HSA), HSA-binding constant / kq(HSA), HSA-quenching constant: HSA 3 μM; for K(HSA), HSA-binding constant: buffer pH 7.0, Scatchard equation; for kq(HSA), HSA-quenching constant: buffer pH 7.0, λexc 295 nm, Stern–Volmer, τ0 = 10^–8 s; for HSA fluorescence, % of the initial fluorescence intensity (I/Io): λem,max = 351 nm, final value of titration (Figure S10)
T1 construct: purchased
Procedure, shortened: (§1)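 Compound binding to serum albumin monitored by quenching of albumin tryptophan fluorescence emission. Quenching constants (kq) derived from Stern–Volmer equation; binding constants (K) from Scatchard equation.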

[2] = target: T2, bovine serum albumin (BSA) (Bos taurus, UniProt P02769); assay: as above; details: for K(BSA), BSA-binding constant / kq(BSA), BSA-quenching constant: BSA 3 μM; for K(BSA), BSA-binding constant: buffer pH 7.0, Scatchard equation; for kq(BSA), BSA-quenching constant: buffer pH 7.0, λexc 295 nm, Stern–Volmer, τ0 = 10^–8 s; for BSA fluorescence, % of the initial fluorescence intensity (I/Io): λem,max = 342 nm, final value of titration (Figure S11)
T2 construct: purchased
Procedure, shortened: as §1

EB–DNA adduct (CT DNA) = assay: Competitive study with EB (EB–DNA fluorescence quenching); type: binding, calf; details: for Ksv, Stern–Volmer constant: EB–DNA adduct; for ΔI/Io, percentage of EB–DNA fluorescence quenching: [EB] = 20 μM, [DNA] = 26 μM, λexc 540 nm, λem 592 nm; for EB–DNA relative fluorescence emission intensity, % of the initial (I/Io): λemission = 592 nm, final value (up to), Figure S14; for kq, EB–DNA quenching constant: τo = 23 ns
CT DNA = assay: Study of the DNA-interaction by cyclic voltammetry; type: binding, calf; details: for Epa(f), anodic potential / Epc(f), cathodic potential / Epa(b), anodic potential / Epc(b), cathodic potential: M(II)/M(I), 1:2 DMSO/buffer; for Epa(f), anodic potential / Epc(f), cathodic potential: absence of CT DNA; for Epa(b), anodic potential / Epc(b), cathodic potential: presence of CT DNA; for Kr/Kox, ratio of equilibrium DNA-binding constants (reduced/oxidized form): eq. S6
Experimental: Cyclic voltammetry was used to study the interaction of the complexes with CT DNA. An intercalative interaction will induce a positive shift for the electrochemical potential(s) of metal oxidation/reduction, whereas, in the case of electrostatic interaction, a negative shift in the potential(s) may occur. The cyclic voltammograms of the complexes in a 1:2 DMSO:buffer solution (0.33 mM) were recorded in the absence and presence of the CT DNA solution (Figure S13). The predominant electrochemical feature for all complexes is a positive shift in the potential in the presence of CT DNA (ΔEpc/a = (–30)–(+127) mV). Consequently, the intercalative nature of the interaction of the complexes with DNA can be inferred from the presented data.
In order to evaluate further the redox behavior of the complexes, the corresponding equilibrium constants were calculated by determining the ratio Kr/Kox in accordance to Equation (S6), where Kox and Kr are the DNA-binding constants for the oxidized and reduced form, respectively, of the metal ions. For all complexes, the Kr/Kox ratio is close to or above 1 (Table 7), showing the selective binding of DNA to the […] form of the complexes. […]
S3.3 Study of the DNA –interaction by cyclic vol ta mmetry
Cyclic voltammetr y can be also used in order to calculate the corresponding equilibrium constant for the redox process. The ratio of the DNA–binding constants for the reduced (K r) and oxidized forms (Kox) of t he complex es (Kr/Kox) w as calculat ed according t o eq. S6:
Δ = = 0.059 × lo gEE E K oxoo o (eq. S6) […]
where Eo and Eo are the formal potentials of M(II)/M(I) redox couple in the fully bound and […]
free complexes, respectivel y. Kox and Kr are the binding constants for the binding of the oxidized and reduced species to DNA, respectivel y [S8] . […]

T1 sequence (P02768 25-609): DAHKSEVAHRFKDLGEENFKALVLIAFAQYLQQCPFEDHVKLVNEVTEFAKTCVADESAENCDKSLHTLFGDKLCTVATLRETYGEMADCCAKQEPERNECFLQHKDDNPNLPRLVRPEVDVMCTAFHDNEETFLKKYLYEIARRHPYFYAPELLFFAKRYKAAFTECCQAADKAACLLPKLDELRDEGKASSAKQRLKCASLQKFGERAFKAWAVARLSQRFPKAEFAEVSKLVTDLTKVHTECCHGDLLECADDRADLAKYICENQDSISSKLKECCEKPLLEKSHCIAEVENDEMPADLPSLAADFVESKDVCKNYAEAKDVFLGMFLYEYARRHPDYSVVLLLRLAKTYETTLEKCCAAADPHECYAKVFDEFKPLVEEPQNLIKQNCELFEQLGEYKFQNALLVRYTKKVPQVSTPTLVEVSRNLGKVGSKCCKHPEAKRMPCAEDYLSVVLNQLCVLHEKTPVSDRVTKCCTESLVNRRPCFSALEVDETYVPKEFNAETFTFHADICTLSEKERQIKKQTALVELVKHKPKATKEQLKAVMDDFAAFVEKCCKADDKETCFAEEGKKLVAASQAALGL
T2 sequence (P02769 25-607): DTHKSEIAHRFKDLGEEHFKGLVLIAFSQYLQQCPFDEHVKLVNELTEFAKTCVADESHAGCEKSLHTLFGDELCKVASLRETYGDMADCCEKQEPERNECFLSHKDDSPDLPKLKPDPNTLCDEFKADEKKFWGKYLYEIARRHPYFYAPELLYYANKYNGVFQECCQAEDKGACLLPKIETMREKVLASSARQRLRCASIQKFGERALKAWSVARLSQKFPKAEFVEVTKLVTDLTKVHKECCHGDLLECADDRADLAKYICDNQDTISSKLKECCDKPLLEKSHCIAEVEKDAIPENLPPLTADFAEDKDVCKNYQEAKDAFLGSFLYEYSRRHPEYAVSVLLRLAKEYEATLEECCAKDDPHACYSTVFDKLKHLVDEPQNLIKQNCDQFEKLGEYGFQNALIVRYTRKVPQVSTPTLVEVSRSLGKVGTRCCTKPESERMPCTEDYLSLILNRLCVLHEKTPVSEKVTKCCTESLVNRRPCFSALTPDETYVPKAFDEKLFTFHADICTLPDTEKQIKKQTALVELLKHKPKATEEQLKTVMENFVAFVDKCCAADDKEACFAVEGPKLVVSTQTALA

SMILES	K(HSA), HSA-binding constant [1]	kq(HSA), HSA-quenching constant [1]	HSA fluorescence, % of the initial fluorescence intensity (I/Io) [1] [%]	K(BSA), BSA-binding constant [2]	kq(BSA), BSA-quenching constant [2]	BSA fluorescence, % of the initial fluorescence intensity (I/Io) [2] [%]	Ksv, Stern–Volmer constant (EB–DNA adduct (CT DNA))	ΔI/Io, percentage of EB–DNA fluorescence quenching (EB–DNA adduct (CT DNA)) [%]	EB–DNA relative fluorescence emission intensity, % of the initial (I/Io) (EB–DNA adduct (CT DNA)) [%]	kq, EB–DNA quenching constant (EB–DNA adduct (CT DNA))	Epa(f), anodic potential (CT DNA) [mV]	Epc(f), cathodic potential (CT DNA) [mV]	Epa(b), anodic potential (CT DNA) [mV]	Epc(b), cathodic potential (CT DNA) [mV]	Kr/Kox, ratio of equilibrium DNA-binding constants (reduced/oxidized form) (CT DNA)
CN1CCN(c2c(F)cc3c(=O)c(C(=O)[O-])cn(CCF)c3c2F)CC1.CN1CCN(c2c(F)cc3c(=O)c(C(=O)[O-])cn(CCF)c3c2F)CC1.[Co+2].c1cnc2c(c1)ccc1cccnc12 [complex 17, [Co(flrx)2(phen)]]	5.18(±0.32) × 10^4 M^−1	6.49(±0.21) × 10^12 M^−1s^−1	44.5	1.44(±0.03) × 10^5 M^−1	1.50(±0.03) × 10^13 M^−1s^−1	26.3	3.56(±0.10) × 10^5 M^–1	69.8	30.2	1.55(±0.05) × 10^13 M^−1s^−1	−523	−695	−518	−689	1.10
CN1CCN(c2c(F)cc3c(=O)c(C(=O)[O-])cn(CCF)c3c2F)CC1.CN1CCN(c2c(F)cc3c(=O)c(C(=O)[O-])cn(CCF)c3c2F)CC1.[Ni+2].c1ccc(Nc2ccccn2)nc1 [complex 18, [Ni(flrx)2(bipyam)]]	7.13(±0.17) × 10^4 M^−1	6.94(±0.10) × 10^12 M^−1s^−1	44.5	4.77(±0.15) × 10^4 M^−1	1.56(±0.07) × 10^13 M^−1s^−1	25.2	3.02(±0.13) × 10^5 M^–1	59.3	–	1.31(±0.05) × 10^13 M^−1s^−1	−523	−695	−512	−689	1.15
CN1CCN(c2c(F)cc3c(=O)c(C(=O)[O-])cn(CCF)c3c2F)CC1.CN1CCN(c2c(F)cc3c(=O)c(C(=O)[O-])cn(CCF)c3c2F)CC1.[Ni+2].c1cnc2c(c1)ccc1cccnc12 [complex 19, [Ni(flrx)2(phen)]]	6.65(±0.15) × 10^4 M^−1	6.67(±0.18) × 10^12 M^−1s^−1	43.9	8.01(±0.28) × 10^4 M^−1	1.39(±0.04) × 10^13 M^−1s^−1	25.6	3.18(±0.14) × 10^5 M^–1	68.1	31.9	1.38(±0.05) × 10^13 M^−1s^−1	−489	−706	−460	−718	1.15
